Measurements reported in patent US20100209934A1, “METHOD OF IDENTIFYING AGENTS WHICH MODULATE THE ACTIVITY OF CALCIUM-ACTIVATED CHLORIDE CHANNEL” (SNU R&DB FOUNDATION, priority 2007, published 2010).

Assays:
mANO1 [1] = target: T1, mANO1 (Mus musculus, UniProt Q8BHY3, S527P); assay: Inhibition of endothelin-1 evoked currents in mANO1-ETAR/HEK cells by Cl− channel and CaCC blockers; assay type: cell-based; set-up: expressed in transfected cells; details: ANO1/ETAR-HEK cells; blockers 10 μM (mefloquine 5 μM) applied 5 min before second 50 nM endothelin-1
T1 sequence (Q8BHY3 1-960 S527P): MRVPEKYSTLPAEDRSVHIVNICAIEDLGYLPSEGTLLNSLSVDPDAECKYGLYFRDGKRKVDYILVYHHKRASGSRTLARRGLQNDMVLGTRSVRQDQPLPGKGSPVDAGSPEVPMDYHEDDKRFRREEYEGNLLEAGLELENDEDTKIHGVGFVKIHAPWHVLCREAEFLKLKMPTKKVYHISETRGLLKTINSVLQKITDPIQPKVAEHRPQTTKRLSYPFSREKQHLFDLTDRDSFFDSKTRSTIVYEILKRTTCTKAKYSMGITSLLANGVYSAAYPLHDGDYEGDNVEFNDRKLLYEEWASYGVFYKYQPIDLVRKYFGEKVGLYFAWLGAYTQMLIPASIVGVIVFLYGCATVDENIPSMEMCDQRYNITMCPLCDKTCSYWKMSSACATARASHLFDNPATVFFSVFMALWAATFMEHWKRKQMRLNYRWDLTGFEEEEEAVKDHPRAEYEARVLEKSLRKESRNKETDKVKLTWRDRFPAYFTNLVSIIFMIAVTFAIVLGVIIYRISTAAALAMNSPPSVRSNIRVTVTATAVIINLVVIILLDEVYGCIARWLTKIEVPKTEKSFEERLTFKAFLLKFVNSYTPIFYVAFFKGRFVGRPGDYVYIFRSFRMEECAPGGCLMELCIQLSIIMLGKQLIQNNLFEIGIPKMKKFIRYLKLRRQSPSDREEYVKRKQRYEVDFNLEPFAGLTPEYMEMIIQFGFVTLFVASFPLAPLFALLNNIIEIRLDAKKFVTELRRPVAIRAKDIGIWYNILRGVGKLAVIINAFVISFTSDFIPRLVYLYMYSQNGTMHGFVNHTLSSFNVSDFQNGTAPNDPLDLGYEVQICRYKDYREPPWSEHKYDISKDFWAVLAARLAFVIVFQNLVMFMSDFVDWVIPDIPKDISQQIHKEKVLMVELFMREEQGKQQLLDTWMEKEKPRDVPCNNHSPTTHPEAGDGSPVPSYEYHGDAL
Procedure: B. Inhibition of endothelin-1 evoked currents in mANO1-ETAR/HEK cells by Cl^− channel blockers as well as classical inhibitors (each, n=5) of native CaCCs. Chemicals in 10 μM (except mefloquine, 5 μM) were applied 5 min before the second application of endothelin-1. Control (n=12). **p<0.001 compared to control (ANOVA, Duncan's post hoc test). (Error bars=Mean±S.E.M)
(§1) To form gigaseals, individual cell surfaces were touched with a ˜3 Mohm Sylgard-coated glass pipette with gentle suction, and the junction potential was then adjusted to 0 mV. The membrane in contact with the pipette was then ruptured by suction to form a whole cell. The pipette solution contained 140 mM NMDG-Cl, 2 mM MgCl2, 10 mM HEPES, 2 mM ATP, and 0.3 mM GTP adjusted to pH 7.2, and the bath solution contained 140 mM NMDG-Cl, 2 mM MgCl2 and 10 mM HEPES (pH 7.2). For ion selectivity experiments, 140 mM NMDG-Cl was replaced with equimolar NaCl, NaL NaBr, NaNO3, NaF, or Na-gluconate in the bath solution. To determine current-voltage relationships, voltage ramps from −80 or −100 mV to +80 or +100 mV were delivered for 350 ms, or voltage-pulses from −100 mV to +100 mV were delivered for 400 ms to whole cells. When mANO1 was activated by 300 nM intracellular Ca^2+, voltage-pulses of 2500 ms were delivered. Whole-cell currents were amplified using an Axopatch 200B amplifier (Molecular Device, Sunnyvale, Calif.) and stored in a personal computer after digitization by a Digidata 1440 (Molecular Device). For single-channel current recordings, cell-attached or inside-out patches were formed from gigaseals. The pipette and control bath solution contained 140 mM NMDG-Cl, 2 mM MgCl2 and 10 mM HEPES (pH 7.2). […] To create amplitude histograms, pClamp software (version 6.0, Molecular Device) was used to analyze open and closed single-channel current events. The half-amplitude algorithm was used to determine an open event. The minimum duration of an open event was set at 0.1 ms.
(§2) LPA-induced ANO1 currents were blocked by Cl^− channel blockers. The Cl^− channel blockers were applied 10˜20 min before the LPA application. […] This blockade of agonist-induced ANO1 currents by DIDS, niflumic acid, or NPPB were also observed in mammalian cells transfected with mANO1.
In addition, modifiers of various enzymes or transporters such as fluoxetine (serotonin reuptake inhibitor), tamoxifen (estrogen receptor modulator), n-phenyl-anthranilic acid (NPA, cyclooxygenase inhibitor), and mefloquine (antimalarial drug) are known to block native CaCCs (Eggermont, J., Proc Am Thorac Soc. 1, 22-7 (2004); Nilius, B. et al. J Physiol. 498, 381-96 (1997); Nilius, B. & Droogmans, G., Acta Physiol Scand 177, 119-47 (2003)). If ANO1 is a CaCC, mANO1 should be inhibited by these CaCC blockers.

mANO1 [2] = target: T1, mANO1; assay: Two-electrode voltage clamp currents in Xenopus oocytes injected with mANO1 complementary RNA; assay type: cell-based; set-up: expressed in transfected cells; host or cells: Xenopus laevis oocytes (cRNA injection); details: for block of LPA-induced ANO1 currents: DIDS 300 μM, niflumic acid 200 μM, NPPB 200 μM applied 10˜20 min before LPA; for block of LPA current responses by pretreatment: mANO1 oocytes, 1 μM thapsigargin for 3 hours or 10 μM U-73122 for 20 min before 1 μM LPA
Procedure: pSDTF-mANO1 obtained in Reference Example 1 was linearized using BamHI. Complementary RNA was transcribed with SP6 RNA polymerase (mMESSAGE mMACHINE® SP6 Kit, Ambion, Austin, Tex.). After being defolliculated with collagenase (Type IA, Sigma), Xenopus laevis oocytes were injected with 50 ng of the complementary RNAs of mANO1 in 50 nl of diethylpyrocarbonate-treated water. Two to five days after the injection, whole cell currents were recorded using the two-electrode voltage clamp technique. The bath solution contained 96 mM NaCl, 1 mM MgCl2, 5 mM HEPES, 2 mM KCl and 1.8 mM CaCl2 at pH 7.5 and was perfused at 2 ml/min. Experiments were performed at room temperature.
Xenopus oocytes provide a recognized model for endogenous CaCC studies because they express endogenous CaCCs that are required for ‘fertilization depolarization’ (Hartzell, H. C. et al., Mol Pharmacol 51, 683-92 (1997)). Furthermore, the biophysical and pharmacological properties of Xenopus CaCCs are similar to those of mammalian CaCCs (Machaca, K. et al., Calcium-Activated Chloride Channels (ed. Fuller, C. M.) (Academic Press, Amsterdam, 2002)). Accordingly, the present inventors expressed mANO1 in Xenopus oocytes and tested its activation by receptor stimulation using 1 μM LPA (lysophosphatidic acid). CaCCs in Xenopus are known to be activated by LPA (Guo, Z. et al., Proc Natl Acad Sci USA. 93, 14367-72 (1996); and Kim, M. J. et al., Biochem Pharmacol. 59, 241-7 (2000)). […] Moreover, LPA-induced ANO1 currents were outwardly-rectifying, like those of native CaCCs in Xenopus oocytes (Machaca, K. et al., supra) (FIG. 4C). The reversal potential was 37.7±1.05 mV (n=5), which is close to the equilibrium potential of Cl^− in Xenopus oocytes (Weber, W., Biochim Biophys Acta 1421, 213-33 (1999)).
Indeed, LPA (1 μM) applied to oocytes expressing mANO1 induced a large inward current.
Further, pretreatment of 1 μM thapsigargin blocked the IP3-induced current in a mANO1-expressing oocyte (FIGS. 10C and 10D).
as §2

mANO1 [3] = assay: Whole-cell current response to GPCR stimulation in HEK 293T cells co-transfected with mANO1 and a GPCR; assay type: cell-based, mouse; details: mANO1 co-expressed in HEK cells with M1R, H1R or AT1R; carbachol 1 μM, histamine 100 μM, angiotensin II 1 μM
Procedure: HEK 293T cells were transfected with pEGFP-N1 (control) (1.0 μg) or pEGFP-N-1-mANO1 (0.8˜1.0 μg) and/or any one of the GPCR cDNAs (1.0 μg) obtained in Reference Example 2, using a FuGENE® HD transfection reagent (Roche Diagnostics, Penzberg, Germany). Transfected cells were maintained in DMEM supplemented with heat inactivated 10% fetal bovine serum (GIBCO BRL, Rockville, Md.) and penicillin-streptomycin at 37 in a 5% CO2 humidified atmosphere. One or two days after transfection, transfected cells were used for biochemical and electrophysiological experiments.
as §1
Under physiological conditions CaCCs are known to be activated by GPCR stimulation. Endothelin-1 is a powerful vasoconstrictor that depolarizes vascular smooth muscle by activating CaCCs (Klockner, U. & Isenberg, G., Pflugers Arch. 418, 168-75 (1991); and Salter, K. J. & Kozlowski, R. Z., J Pharmacol Exp Ther. 279, 1053-62 (1996)). Thus, mANO1 and endothelin receptor subtype A (ETAR) were transfected into HEK 293T cells, along with GFP for visual identification of transfected cells, in accordance with the method of Reference Example 5. Whole cells were used to test the current response of mANO1 to ETAR stimulation. Pipette and bath solutions contained 140 mM N-methyl D-glucamine (NMDG)-Cl, which permitted Cl^− to be used as the main charge carrier. The pipette solution was Ca^2+ free and contained no EGTA. […] In contrast, endothelin-1 evoked currents were minimal in HEK cells transfected with ETAR or control (GFP-transfected only) cells. When mANO1 was transfected alone, 50 nM endothelin-1 evoked appreciable currents; presumably because of the presence of endogenous endothelin receptors in HEK cells.

O=S(=O)(O)c1cc(N=C=S)ccc1C=Cc1ccc(N=C=S)cc1S(=O)(=O)O [DIDS, 4,4′-diisothiocyanato-stilbene-2,2′-disulfonic acid]
inhibition of response to second application of endothelin-1 (endothelin-1 induced currents) (mANO1 [1]): markedly inhibited
block of LPA-induced ANO1 currents (mANO1 [2]; Xenopus oocytes): significantly blocked

O=P(O)(O)O[C@@H]1[C@H](O)[C@H](O)[C@@H](OP(=O)(O)O)[C@H](OP(=O)(O)O)[C@H]1O [IP3, inositol 1,4,5,-triphosphate]
inward currents evoked by IP3 micro-injection (mANO1 [2]; 2 mM IP3 in 50 nl into oocytes expressing ANO1): evoked robust inward currents

O=C(O)c1cc([N+](=O)[O-])ccc1NCCCc1ccccc1 [NPPB, 5-nitro-2-(3-phenyl-propylamino)-benzoate]
inhibition of response to second application of endothelin-1 (endothelin-1 induced currents) (mANO1 [1]): markedly inhibited
block of LPA-induced ANO1 currents (mANO1 [2]; Xenopus oocytes): significantly blocked

COc1ccc2c(c1)CC[C@@H]1[C@@H]2CC[C@]2(C)[C@@H](NCCCCCCN3C(=O)C=CC3=O)CC[C@@H]12 [U-73122]
block of LPA current responses by pretreatment (mANO1 [2]): completely blocked

C[N+](C)(C)CCOC(N)=O [carbachol]
current responses to GPCR ligands (mANO1 [3]): robust current responses

CNCCC(Oc1ccc(C(F)(F)F)cc1)c1ccccc1 (stereo not drawn) [fluoxetine]
inhibition of response to second application of endothelin-1 (endothelin-1 induced currents) (mANO1 [1]): markedly inhibited

NCCc1c[nH]cn1 [histamine]
current responses to GPCR ligands (mANO1 [3]): robust current responses

OC(c1cc(C(F)(F)F)nc2c(C(F)(F)F)cccc12)C1CCCCN1 (stereo not drawn) [mefloquine]
inhibition of response to second application of endothelin-1 (endothelin-1 induced currents) (mANO1 [1]): markedly inhibited

O=C(O)c1ccccc1Nc1ccccc1 [n-phenyl-anthranilic acid]
inhibition of response to second application of endothelin-1 (endothelin-1 induced currents) (mANO1 [1]): markedly inhibited

O=C(O)c1cccnc1Nc1cccc(C(F)(F)F)c1 [niflumic acid]
inhibition of response to second application of endothelin-1 (endothelin-1 induced currents) (mANO1 [1]): markedly inhibited
block of LPA-induced ANO1 currents (mANO1 [2]; Xenopus oocytes): significantly blocked

CC/C(=C(\c1ccccc1)c1ccc(OCCN(C)C)cc1)c1ccccc1 [tamoxifen]
inhibition of response to second application of endothelin-1 (endothelin-1 induced currents) (mANO1 [1]): markedly inhibited

C/C=C(/C)C(=O)O[C@H]1C(C)=C2[C@H]([C@@H]1OC(=O)CCCCCCC)[C@@](C)(OC(C)=O)C[C@H](OC(=O)CCC)[C@@]1(O)[C@H]2OC(=O)[C@@]1(C)O [thapsigargin]
block of LPA current responses by pretreatment (mANO1 [2]): completely blocked
block of IP3-induced current (mANO1 [2]; pretreatment of 1 μM thapsigargin, mANO1-expressing oocyte): blocked

angiotensin II (DRVYIHPF) [ligand of angiotensin receptor subtype 1 (AT1R)]
current responses to GPCR ligands (mANO1 [3]): robust current responses

lysophosphatidic acid [LPA]
current response to LPA in mANO1 RNA-injected vs water-injected oocytes (mANO1 [2]; 1 μM LPA, Xenopus oocytes, −60 mV): increased about six fold
